Measurements reported in patent US7323186B2 (priority 2001, dated 2008).

Assays:
[1] = test system: TSST-1 production by S. aureus FRI-1169; type: cell-based, Staphylococcus aureus
[2] = test system: TSST-1 production by S. aureus FRI-1187; type: cell-based, Staphylococcus aureus

Oc1cc(Cl)ccc1Oc1ccc(Cl)cc1Cl [Triclosan, triclosan]
TSST-1 production compared to the control [1]: produced less TSST-1 | TSST-1 production compared to the control [2]: produced less TSST-1
